The record followed here is PubChem BioAssay (NCI).

Structures are written as SMILES.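 The compound was tested at five concentrations on cells cultured in 96-well plates, with a 48-hour exposure period. The concentration for full growth arrest is given as TGI.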

Among the test systems are DU-145 prostate; HCT-15 colon; HOP-62 NSCLC; NCI/ADR-RES ovarian; OVCAR-8 ovarian; SK-MEL-2 melanoma; SK-MEL-28 melanoma; SK-OV-3 ovarian; UACC-62 melanoma; A498 renal.
Assay in all cases: DTP human tumour cell line panel, 48 h

As to `CN(NC(=O)c1ccco1)C1=NCCCCN1`, the TGI in the experiment on DU-145 prostate, in the experiment with HCT-15 colon, in the experiment with HOP-62 NSCLC, in the experiment on NCI/ADR-RES ovarian, in the experiment on OVCAR-8 ovarian and with SK-MEL-2 melanoma was greater than 100 µM each time. Further, the TGI in the experiment with SK-MEL-28 melanoma, in the experiment on SK-OV-3 ovarian and in the experiment on UACC-62 melanoma was greater than 100 µM each time.

For `CC(C)CN1CN(c2ccccc2)C2(CCN(CC(C)(c3ccc(F)cc3)C3OCCO3)CC2)C1=O` (stereo not drawn), the TGI in the experiment on DU-145 prostate was 14.8 µM; in the experiment on HCT-15 colon, 16.6 µM; in the experiment with HOP-62 NSCLC it was 13.8 µM; with NCI/ADR-RES ovarian it was 37.4 µM; in the experiment on OVCAR-8 ovarian it was 29.3 µM; with SK-MEL-2 melanoma, 11.5 µM. Further, the results for the TGI with SK-MEL-28 melanoma, with SK-OV-3 ovarian and with UACC-62 melanoma were 10 µM, 14.3 µM and 26.3 µM, respectively.

`COc1c2nc(CCl)n(C)c(=O)c2c(OC)c2c(=O)n(C)c(CCl)nc12`: the TGI in the experiment on A498 renal is 5.94 µM; with DU-145 prostate, 14 µM; with HCT-15 colon, 2.86 µM; in the experiment on HOP-62 NSCLC, 5.7 µM; with NCI/ADR-RES ovarian it was 6.88 µM; in the experiment on OVCAR-8 ovarian, 13.2 µM. This compound also had a concentration for total growth inhibition (TGI) with SK-MEL-28 melanoma of 3.94 µM.

For the compound `c1cnc2c(c1)-n1cccc1C1(CCOCC1)NN2`, the TGI with A498 renal, in the experiment with HCT-15 colon, in the experiment with OVCAR-8 ovarian, with SK-MEL-2 melanoma, in the experiment on SK-MEL-28 melanoma and in the experiment with SK-OV-3 ovarian was greater than 100 µM in each case.

As for `CN1CC(c2ccccc2)=Cc2c1ccc(N)c2N=N`, the TGI in the experiment on HCT-15 colon, with HOP-62 NSCLC, in the experiment with NCI/ADR-RES ovarian, in the experiment with OVCAR-8 ovarian, with SK-MEL-2 melanoma and in the experiment on SK-MEL-28 melanoma was greater than 100 µM throughout. The TGI in the experiment on SK-OV-3 ovarian and in the experiment on UACC-62 melanoma was greater than 100 µM in each case.

Regarding `O=C(NCCNCCO)N/N=C/c1cccc([N+](=O)[O-])c1`, the TGI in the experiment with A498 renal, in the experiment on HCT-15 colon, with HOP-62 NSCLC, in the experiment on OVCAR-8 ovarian, in the experiment with SK-MEL-2 melanoma and in the experiment with SK-MEL-28 melanoma was greater than 100 µM each time. Also, the TGI with SK-OV-3 ovarian and in the experiment with UACC-62 melanoma was greater than 100 µM each time.

Turning to `COc1c(C2(c3ccc(F)cc3)SCCCS2)c(=O)c1=O`, the TGI with DU-145 prostate, in the experiment with HCT-15 colon, in the experiment with HOP-62 NSCLC, in the experiment with NCI/ADR-RES ovarian, in the experiment on OVCAR-8 ovarian and in the experiment on SK-MEL-2 melanoma was greater than 100 µM each time. Moreover, the TGI in the experiment on SK-MEL-28 melanoma, with SK-OV-3 ovarian and in the experiment on UACC-62 melanoma was greater than 100 µM throughout.

Turning to `Nc1cc2c(cc1[N+](=O)[O-])[nH]c1c(-c3ccccc3)nccc12`, the TGI was 79.7 µM in the experiment with A498 renal; greater than 57.3 µM in the experiment on HCT-15 colon; 41.4 µM in the experiment on HOP-62 NSCLC; 41.4 µM with NCI/ADR-RES ovarian; greater than 100 µM with OVCAR-8 ovarian; 38.2 µM in the experiment with SK-MEL-2 melanoma. The figures for the TGI in the experiment with SK-MEL-28 melanoma, in the experiment on SK-OV-3 ovarian and in the experiment with UACC-62 melanoma were 87.3 µM, 55.9 µM and 27.8 µM, respectively.

In the case of `Cc1cc(Br)c(N2C3=C(CC4=C2CCCC4=O)C(=O)CCC3)c(Br)c1`, the TGI in the experiment on A498 renal, with HCT-15 colon, in the experiment on NCI/ADR-RES ovarian, in the experiment with OVCAR-8 ovarian, in the experiment with SK-MEL-28 melanoma and in the experiment with SK-OV-3 ovarian was greater than 100 µM throughout. The TGI in the experiment with UACC-62 melanoma is greater than 100 µM.

For the compound `N=C(N)/N=C(/C=C/c1ccccc1)CC1OC(=O)c2ccccc21` (stereo not drawn), the TGI with A498 renal, in the experiment with HCT-15 colon, in the experiment with HOP-62 NSCLC, in the experiment on OVCAR-8 ovarian, in the experiment on SK-MEL-2 melanoma and in the experiment with UACC-62 melanoma was greater than 100 µM throughout.

For the compound `Cc1ccc(OP2(=O)Oc3ccc4ccccc4c3CN2c2ccc(Cl)cc2)cc1C` (stereo not drawn), the TGI in the experiment on A498 renal, in the experiment with HCT-15 colon, in the experiment with HOP-62 NSCLC, in the experiment with NCI/ADR-RES ovarian, in the experiment with OVCAR-8 ovarian and in the experiment on SK-MEL-2 melanoma was greater than 100 µM in each case. For the same compound, the TGI in the experiment with SK-MEL-28 melanoma, in the experiment with SK-OV-3 ovarian and in the experiment with UACC-62 melanoma was greater than 100 µM in each case.

Regarding `Cc1ccc(-c2cc(-c3ccco3)nc(N)n2)o1`, the TGI with HCT-15 colon, with HOP-62 NSCLC, in the experiment on OVCAR-8 ovarian, in the experiment with SK-MEL-2 melanoma, in the experiment with SK-MEL-28 melanoma and in the experiment with UACC-62 melanoma was greater than 100 µM throughout.

Consider `CCCCCCCCCCCCNC(=O)NCC(OCC)OCC`, for which the TGI with A498 renal, in the experiment with DU-145 prostate, in the experiment on HCT-15 colon, in the experiment on HOP-62 NSCLC, in the experiment on OVCAR-8 ovarian and in the experiment with SK-MEL-2 melanoma was greater than 10 µM throughout. In addition, the TGI with SK-MEL-28 melanoma, in the experiment with SK-OV-3 ovarian and in the experiment with UACC-62 melanoma was greater than 10 µM in each case.

As for `COC(=O)c1ccc(CN2CCc3c([nH]c4ccccc34)C2CO)o1` (stereo not drawn), the TGI with DU-145 prostate, in the experiment on HCT-15 colon, in the experiment on HOP-62 NSCLC, in the experiment with OVCAR-8 ovarian, in the experiment with SK-MEL-28 melanoma and in the experiment on SK-OV-3 ovarian was greater than 10 µM in each case. Further, in the experiment on UACC-62 melanoma, the concentration for total growth inhibition (TGI) is greater than 10 µM.

Consider `COc1cc2c(cc1O)[C@H](C)C(c1ccc(Cl)cc1)O2` (stereo partly drawn), for which the TGI in the experiment with A498 renal was greater than 100 µM; in the experiment on HCT-15 colon, 27.7 µM; with HOP-62 NSCLC, 68.2 µM; in the experiment on SK-MEL-2 melanoma, 56 µM; in the experiment on SK-MEL-28 melanoma, greater than 100 µM; with SK-OV-3 ovarian, greater than 100 µM. The compound further had a TGI in the experiment on UACC-62 melanoma of 92.4 µM.

`Oc1ccc(-c2cc(-c3c(O)cc(O)cc3O)on2)cc1`: the TGI in the experiment with DU-145 prostate, in the experiment with HCT-15 colon, in the experiment on HOP-62 NSCLC, in the experiment with NCI/ADR-RES ovarian, in the experiment on OVCAR-8 ovarian and in the experiment with SK-MEL-2 melanoma was greater than 100 µM throughout. In addition, the TGI in the experiment on SK-MEL-28 melanoma, in the experiment with SK-OV-3 ovarian and in the experiment on UACC-62 melanoma was greater than 100 µM each time.

`O=c1[nH]cnc2c1nnn2CCCn1nnc2c(=O)[nH]cnc21`: the TGI in the experiment with A498 renal, in the experiment with HCT-15 colon, with HOP-62 NSCLC, with OVCAR-8 ovarian, in the experiment with SK-MEL-2 melanoma and in the experiment with SK-MEL-28 melanoma was greater than 100 µM each time. In addition, the TGI in the experiment on SK-OV-3 ovarian and with UACC-62 melanoma was greater than 100 µM each time.
